The record followed here is patent publication US10287301B2 (Achillion Pharmaceuticals, Inc., priority 2015, dated 2019).

The assay has as its target Human Factor D (Homo sapiens (Human), UniProt P00746). In words: Human Factor D Assay. Type of assay: biochemical. The method in brief: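 Serum-purified human Factor D (80 nM final) was preincubated with test compound at various concentrations for 5 min at room temperature in 50 mM Tris, 1M NaCl, pH 7.5. Z-L-Lys-SBzl and DTNB were then added at 100 μM each. IC50 came from nonlinear regression of reaction rates versus compound concentration.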

Setting [1] is: Human Factor D, Table 3, read-out: IC50.
[2] abbreviates: Human Factor D assay of Example 8, Table 2, read-out: IC50.
Setting [3] is: Human Factor D 80 nM, substrate Z-L-Lys-SBzl, read-out: IC50.
Where [4] appears, read: Table 3, Human Factor D 80 nM, substrate Z-L-Lys-SBzl, read-out: IC50 (Stars).

Where two headings read alike, the source gives them in different places.

Chain of Human Factor D (P00746 26-253): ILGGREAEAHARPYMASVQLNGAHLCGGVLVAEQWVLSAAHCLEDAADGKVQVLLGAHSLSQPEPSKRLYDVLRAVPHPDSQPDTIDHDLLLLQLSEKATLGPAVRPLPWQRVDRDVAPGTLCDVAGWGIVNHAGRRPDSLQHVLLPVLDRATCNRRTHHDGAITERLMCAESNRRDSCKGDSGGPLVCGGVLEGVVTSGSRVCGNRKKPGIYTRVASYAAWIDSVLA

On to `CC(=O)c1nn(CC(=O)N2[C@H](C(=O)Nc3nc(Br)ccc3C)C[C@@]3(C)C[C@@H]23)c2ccc(-c3cnc(N)nc3)cc12` [Compound 620, (1R,3S,5R)-2-(2-(3-Acetyl-5-(2-aminopyrimidin-5-yl)-1H-indazol-1-yl)acetyl)-N-(6-bromo-3-methylpyridin-2-yl)-5-methyl-2-azabicyclo[3.1.0]hexane-3-carboxamide], for which the IC50 under setting [1] was less than 1 µM.
On to `CC(=O)c1nn(CC(=O)N2C[C@H](F)C[C@H]2C(=O)Nc2cccc(-c3ccc4[nH]cnc4c3Cl)c2F)c2ccc(-c3cnc(C)nc3)cc12` [Compound 214, (2S,4R)-1-(2-(3-acetyl-5-(2-methylpyrimidin-5-yl)-1H-indazol-1-yl)acetyl)-N-(3-(4-chloro-1H-benzo[d]imidazol-5-yl)-2-fluorophenyl)-4-fluoropyrrolidine-2-carboxamide], for which the IC50 under setting [2] was less than 1 µM.
`CC(=O)c1cn(CC(=O)N2C[C@H](F)C[C@H]2C(=O)Nc2ccnc(=O)n2C)c2ccc(-c3ccnnc3)cc12` [Compound 173, (2S,4R)-1-(2-(3-acetyl-5-(pyridazin-4-yl)-1H-indol-1-yl)acetyl)-4-fluoro-N-(3-methyl-2-oxo-2,3-dihydropyrimidin-4-yl)pyrrolidine-2-carboxamide]: the IC50 under setting [3] was greater than 10 µM.
As to `Cc1cccc(NC(=O)[C@@H]2C[C@@H](F)CN2C(=O)Cn2nc(C(N)=O)c3sc(-c4cnc5cc(C)nn5c4)nc32)n1` [Compound 714, 1-(2-((2S,4R)-4-Fluoro-2-(6-methylpyridin-2-ylcarbamoyl)pyrrolidin-1-yl)-2-oxoethyl)-5-(2-methylpyrazolo[1,5-a]pyrimidin-6-yl)-1H-pyrazolo[3,4-d]thiazole-3-carboxamide], the IC50 under setting [1] is greater than 10 µM.
Still for that read-out and setting: in the case of `CCc1cc2ncc(-c3ccc4c(c3)c(C(C)=O)nn4CC(=O)N3C[C@H](F)C[C@H]3C(=O)Nc3cccc(Br)n3)cn2n1` [Compound 681, (2S,4R)-1-(2-(3-Acetyl-5-(2-ethylpyrazolo[1,5-a]pyrimidin-6-yl)-1H-indazol-1-yl)acetyl)-N-(6-bromopyridin-2-yl)-4-fluoropyrrolidine-2-carboxamide] it was less than 1 µM.
For the compound `NC(=O)c1nn(CC(=O)N2C[C@H](F)C[C@H]2C(=O)NCc2ccccn2)c2ccc(-c3ccnnc3)cc12` [Compound 139, 1-(2-((2S,4R)-4-fluoro-2-(pyridin-2-ylmethylcarbamoyl)pyrrolidin-1-yl)-2-oxoethyl)-5-(pyridazin-4-yl)-1H-indazole-3-carboxamide], the IC50 was in the range of 1 to 10 µM.
For `Cc1ncc(-c2ccc3c(c2)c(C(N)=O)cn3CC(=O)N2C[C@H](F)C[C@H]2C(=O)Nc2cccc(Br)n2)cn1` [Compound 307, 1-(2-((2S,4R)-2-(6-bromopyridin-2-ylcarbamoyl)-4-fluoropyrrolidin-1-yl)-2-oxoethyl)-5-(2-methylpyrimidin-5-yl)-1H-indole-3-carboxamide], the IC50 under setting [2] is less than 1 µM.
On the same count and under the same terms, in the case of `CC(=O)c1nn(CC(=O)N2C[C@H](F)C[C@H]2C(=O)Nc2cccc(-c3sccc3Cl)c2F)c2ccc(-c3cnc(C)nc3)cc12` [Compound 327, (2S,4R)-1-(2-(3-acetyl-5-(2-methylpyrimidin-5-yl)-1H-indazol-1-yl)acetyl)-N-(3-(3-chlorothiophen-2-yl)-2-fluorophenyl)-4-fluoropyrrolidine-2-carboxamide] it was less than 1 µM; in that of `CC(=O)c1cn(CC(=O)N2C[C@H](F)C[C@H]2C(=O)Nc2cccc(-c3ccccc3Cl)c2F)c2ccc(-c3cnc(N)nc3)cc12` [Compound 215, (2S,4R)-1-(2-(3-acetyl-5-(2-aminopyrimidin-5-yl)-1H-indol-1-yl)acetyl)-N-(2′-chloro-2-fluorobiphenyl-3-yl)-4-fluoropyrrolidine-2-carboxamide], less than 1 µM.
Turning to `CC(=O)c1nn(CC(=O)N2[C@@H]3C[C@@H]3C[C@H]2C(=O)Nc2ccc(F)c(Br)n2)c2ccc(-c3cnc(N)nc3)cc12` [Compound 458, (1R,3S,5R)-2-(2-(3-Acetyl-5-(2-aminopyrimidin-5-yl)-1H-indazol-1-yl)acetyl)-N-(6-bromo-5-fluoropyridin-2-yl)-2-azabicyclo[3.1.0]hexane-3-carboxamide], the IC50 under setting [4] was less than 1 µM.
In the case of `CNc1ncc2cc(-c3cn(CC(=O)N4C[C@H](F)C[C@H]4C(=O)Nc4cccc(Br)n4)nc3C(N)=O)ccc2n1` [Compound 723, 1-(2-((2S,4R)-2-((6-Bromopyridin-2-yl)carbamoyl)-4-fluoropyrrolidin-1-yl)-2-oxoethyl)-4-(2-(methylamino)quinazolin-6-yl)-1H-pyrazole-3-carboxamide], under setting [1], the IC50 was greater than 10 µM.
On to `CC(=O)c1nn(CC(=O)N2C[C@H](F)C[C@H]2C(=O)Nc2nc(-c3ccccc3Cl)cs2)c2ccc(-c3cnc(C)nc3)cc12` [Compound 453, (2S,4R)-1-(2-(3-Acetyl-5-(2-methylpyrimidin-5-yl)-1H-indazol-1-yl)acetyl)-N-(4-(2-chlorophenyl)thiazol-2-yl)-4-fluoropyrrolidine-2-carboxamide], for which, under setting [4], the IC50 was greater than 10 µM.
For the compound `NC(=O)c1nn(CC(=O)N2[C@@H]3C[C@@H]3C[C@H]2C(=O)Nc2cccc(Br)n2)c2ccc(-c3cncnc3)cc12` [Compound 4], the IC50 under setting [3] was less than 1 µM.
Turning to `CC(=O)c1nn(CC(=O)N2CCOC[C@@H]2C(=O)Nc2cccc(Br)n2)c2ccc(-c3cnc(C)nc3)cc12` [Compound 748, (R)-4-(2-(3-acetyl-5-(2-methylpyrimidin-5-yl)-1H-indazol-1-yl)acetyl)-N-(6-bromopyridin-2-yl)morpholine-3-carboxamide], the IC50 under setting [1] is less than 1 µM.
On to `CC(=O)c1nn(CC(=O)N2C[C@H](F)C[C@H]2C(=O)Nc2cccc(-c3cccc(S(C)(=O)=O)c3)c2F)c2ccc(-c3cnc(C)nc3)cc12` [Compound 295, (2S,4R)-1-(2-(3-Acetyl-5-(2-methylpyrimidin-5-yl)-1H-indazol-1-yl)acetyl)-4-fluoro-N-(2-fluoro-3′-(methylsulfonyl)-[1,1′-biphenyl]-3-yl)pyrrolidine-2-carboxamide], for which, under setting [2], the IC50 is less than 1 µM.
`Cc1ncc(-c2ccc3c(c2)c([C@@H](C)O)nn3CC(=O)N2C[C@H](F)C[C@H]2C(=O)Nc2cccc(Br)n2)cn1` [Compound 426, (2S,4R)—N-(6-Bromopyridin-2-yl)-4-fluoro-1-(2-(3-((R)-1-hydroxyethyl)-5-(2-methylpyrimidin-5-yl)-1H-indazol-1-yl)acetyl)pyrrolidine-2-carboxamide] came in with an IC50 of 1 to 10 µM.
As to `CC(=O)c1nn(CC(=O)N2C[C@H](F)C[C@H]2C(=O)Nc2cccc(Br)n2)c2ccc(-c3ccc4nc(C)nn4c3)cc12` [Compound 311, (2S,4R)-1-(2-(3-acetyl-5-(2-methyl-[1,2,4]triazolo[1,5-a]pyridin-6-yl)-1H-indazol-1-yl)acetyl)-N-(6-bromopyridin-2-yl)-4-fluoropyrrolidine-2-carboxamide], the IC50 under setting [2] is less than 1 µM.
Take `COC[C@@]12C[C@@H]1N(C(=O)Cn1nc(C(C)=O)c3cc(-c4cnc(C)nc4)ccc31)[C@H](C(=O)Nc1cccc(Br)n1)C2` [Compound 417, (1S,3S,5R)-2-(2-(3-Acetyl-5-(2-methylpyrimidin-5-yl)-1H-indazol-1-yl)acetyl)-N-(6-bromopyridin-2-yl)-5-(methoxymethyl)-2-azabicyclo[3.1.0]hexane-3-carboxamide]: the IC50 under setting [4] was less than 1 µM.
With `CC(=O)c1cn(CC(=O)N2[C@@H]3C[C@@H]3C[C@H]2C(=O)Nc2cccc(Br)n2)c2ccc(-c3cncnc3)cc12` [Compound 17, (1R,3S,5R)-2-(2-(3-acetyl-5-(pyrimidin-5-yl)-1H-indol-1-yl)acetyl)-N-(6-bromopyridin-2-yl)2-azabicyclo[3.1.0] hexane-3-carboxamide], the IC50 under setting [3] is less than 1 µM.
Take `CC(=O)c1nn(CC(=O)N2[C@@H]3C[C@@H]3C[C@H]2C(=O)Nc2cncc(Br)n2)c2ccc(-c3cnc(C)nc3)cc12` [Compound 350, (1R,3S,5R)-2-(2-(3-Acetyl-5-(2-methylpyrimidin-5-yl)-1H-indazol-1-yl)acetyl)-N-(6-bromopyrazin-2-yl)-2-azabicyclo[3.1.0]hexane-3-carboxamide]: under setting [4], the IC50 is less than 1 µM.
Regarding `CC(=O)c1nn(CC(=O)N2C(C(=O)Nc3cccc(Br)n3)C[C@]3(CN(C)C)C[C@H]23)c2ccc(-c3cnc(C)nc3)cc12` (stereo in doubt) [Compound 578, (1S,3S,5S)-2-(2-(3-acetyl-5-(2-methylpyrimidin-5-yl)-1H-indazol-1-yl)acetyl)-N-(6-bromopyridin-2-yl)-5-((dimethylamino)methyl)-2-azabicyclo[3.1.0]hexane-3-carboxamide], the IC50 under setting [1] was less than 1 µM.
Turning to `NC(=O)c1nn(CC(=O)N2C[C@H](F)C[C@H]2C(=O)Nc2nccc(Cl)n2)c2ccc(-c3ccnnc3)cc12` [Compound 178, 1-(2-((2S,4R)-2-(4-chloropyrimidin-2-ylcarbamoyl)-4-fluoropyrrolidin-1-yl)-2-oxoethyl)-5-(pyridazin-4-yl)-1H-indazole-3-carboxamide], the IC50 under setting [3] is greater than 10 µM.
For the compound `CC(=O)c1nn(CC(=O)N2C[C@H](F)C[C@H]2C(=O)NCC2CC2(Cl)Cl)c2ccc(-c3cnc(C)nc3)cc12` (stereo partly drawn) [Compound 459, (2S,4R)-1-(2-(3-acetyl-5-(2-methylpyrimidin-5-yl)-1H-indazol-1-yl)acetyl)-N-((2,2-dichlorocyclopropyl)methyl)-4-fluoropyrrolidine-2-carboxamide], the concentration for half-maximal inhibition (IC50) under setting [4] is less than 1 µM.
For the compound `CC(=O)c1nn(CC(=O)N2C[C@H](F)C[C@H]2C(=O)Nc2cccc(Br)n2)c2ccc(-c3cnc(N)[n+]([O-])c3)cc12` [Compound 741, 5-(3-acetyl-1-(2-((2S,4R)-2-((6-Bromopyridin-2-yl)carbamoyl)-4-fluoropyrrolidin-1-yl)-2-oxoethyl)-1H-indazol-5-yl)-2-aminopyrimidine 1-oxide], the IC50 under setting [1] is less than 1 µM.
As for `CC(=O)c1nn(CC(=O)N2CC[C@H]2C(=O)Nc2cccc(C)n2)c2ccc(-c3ccc4c(c3)CCC4)cc12` [Compound 573, (S)-1-(2-(3-Acetyl-5-(2,3-dihydro-1H-inden-5-yl)-1H-indazol-1-yl)acetyl)-N-(6-methylpyridin-2-yl)azetidine-2-carboxamide], under setting [1], the concentration for half-maximal inhibition (IC50) is greater than 10 µM.
